Activity calls are given as the source filed them.
What was measured:
[1] = biological target: Ubiquitin carboxyl-terminal hydrolase 9X (Homo sapiens) (UniProt Q93008); test: Inhibition of Usp9x in primary tumor cells from patient with plasma cell leukemia assessed as reduction in MCL-1 protein levels at 5 uM incubated for 30 to 240 mins by SDS-PAGE and immunoblotting; format: cell-based
[2] = Plasma concentration in Balb/c mouse at 30 mg/kg, po after 0.5 hrs by LC-MS analysis; format: ADME, organism-based
[3] = Plasma concentration in Balb/c mouse at 30 mg/kg, po after 4 hrs by LC-MS analysis; format: ADME, organism-based
[4] = Plasma concentration in Balb/c mouse at 30 mg/kg, po after 7 hrs by LC-MS analysis; format: ADME, organism-based
[5] = AUClast in Balb/c mouse at 30 mg/kg, po by LC-MS analysis; format: ADME, organism-based; parameters: dose 30 mg/kg, route oral, time 0 - last; conditions: in vivo
Mus musculus [6] = test: Toxicity in human MM1S cells xenografted NOD/SCID/gamma-2 knockout mouse assessed effect on body weight at 2.5 to 10 mg/kg, ip once per day for 14 days; format: functional, organism-based
[7] = biological target: Ubiquitin carboxyl-terminal hydrolase 9X (Homo sapiens) (UniProt Q93008); test: Inhibition of Usp9x in human A375 cells; format: cell-based
Mus musculus [8] = test: Inhibition of Usp9x in tumor of human MM1S cells xenografted in NOD/SCID/gamma-2 knockout mouse at 15 mg/kg, ip once per day for 14 days; format: organism-based; conditions: in vivo, 336 h
Mus musculus [9] = test: Inhibition of Usp9x in human MM1S cells xenografted in NOD/SCID/gamma-2 knockout mouse assessed as reduction in Mcl-1 protein levels at 15 mg/kg, ip once per day for 14 days; format: functional, organism-based
A-375 [10] = test: Antitumor activity against human A375 cells xenografted in NOD/SCID/gamma-2 knockout mouse assessed as inhibition of tumor growth at 7.5 mg/kg, ip once per day for 8 days; format: functional, organism-based
Mus musculus [11] = test: Toxicity in human A375 cells xenografted NOD/SCID/gamma-2 knockout mouse assessed effect on body weight at 7.5 mg/kg, ip once per day for 8 days; format: functional, organism-based
Murine norovirus [12] = test: Antiviral activity against Murine norovirus infected in mouse RAW264.7 cells assessed as reduction in viral plaque forming units; format: functional, organism-based
Murine norovirus [13] = test: Antiviral activity against Murine norovirus infected in Swiss Webster bone marrow derived macrophages assessed as reduction in viral plaque forming units; format: functional, organism-based
Murine norovirus [14] = test: Antiviral activity against Murine norovirus infected in Balb/c bone marrow derived macrophages assessed as reduction in viral plaque forming units; format: functional, organism-based
Sindbis virus = test: Antiviral activity against Sindbis virus infected in African green monkey Vero cells assessed as reduction in viral plaque forming units; format: functional, organism-based
Tulane virus = test: Antiviral activity against Tulane virus infected in […] LLC-MK cells assessed as reduction in viral plaque forming units; format: functional, organism-based
La Crosse virus = test: Antiviral activity against La Crosse virus virus infected in human Be2-c cells assessed as reduction in viral plaque forming units; format: functional, organism-based
[15] = biological target: T1, Ubiquitin carboxyl-terminal hydrolase 5 (Homo sapiens) (UniProt P45974); test: Inhibition of USP5 in Vemurafenib sensitive human A375 cells
T1 sequence (whole entry): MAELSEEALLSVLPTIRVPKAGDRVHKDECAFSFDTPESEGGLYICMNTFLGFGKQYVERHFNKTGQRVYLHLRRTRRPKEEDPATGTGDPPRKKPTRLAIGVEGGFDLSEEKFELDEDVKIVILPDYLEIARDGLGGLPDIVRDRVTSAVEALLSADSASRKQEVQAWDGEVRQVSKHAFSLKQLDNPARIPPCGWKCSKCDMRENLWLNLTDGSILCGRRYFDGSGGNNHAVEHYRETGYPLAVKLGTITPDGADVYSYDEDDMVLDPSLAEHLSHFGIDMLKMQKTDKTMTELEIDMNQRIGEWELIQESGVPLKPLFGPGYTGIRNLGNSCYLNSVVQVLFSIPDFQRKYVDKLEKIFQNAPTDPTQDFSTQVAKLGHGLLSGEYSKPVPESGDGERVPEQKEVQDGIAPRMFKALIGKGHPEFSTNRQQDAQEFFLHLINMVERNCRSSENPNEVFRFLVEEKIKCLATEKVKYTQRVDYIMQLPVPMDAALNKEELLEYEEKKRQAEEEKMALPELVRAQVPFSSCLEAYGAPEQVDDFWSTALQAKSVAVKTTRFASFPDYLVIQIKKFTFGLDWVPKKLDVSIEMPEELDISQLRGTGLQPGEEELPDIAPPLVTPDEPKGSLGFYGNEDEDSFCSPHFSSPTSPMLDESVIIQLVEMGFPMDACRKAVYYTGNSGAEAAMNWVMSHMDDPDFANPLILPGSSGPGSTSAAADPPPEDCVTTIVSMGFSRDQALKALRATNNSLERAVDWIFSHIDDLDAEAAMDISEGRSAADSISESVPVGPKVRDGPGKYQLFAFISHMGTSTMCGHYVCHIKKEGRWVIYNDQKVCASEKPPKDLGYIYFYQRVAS

[16] = biological target: T1, Ubiquitin carboxyl-terminal hydrolase 5 (Homo sapiens); test: Inhibition of USP5 in Vemurafenib resistant human A375 cells
[17] = biological target: T1, Ubiquitin carboxyl-terminal hydrolase 5 (Homo sapiens); test: Inhibition of USP5 in Vemurafenib sensitive human A375 cells assessed as reduction in ERK phosphorylation
[18] = biological target: T1, Ubiquitin carboxyl-terminal hydrolase 5 (Homo sapiens); test: Inhibition of USP5 in Vemurafenib resistant human A375 cells assessed as reduction in ERK phosphorylation
[19] = biological target: Ubiquitin carboxyl-terminal hydrolase 9X (Homo sapiens) (UniProt Q93008); test: Inhibition of USP9x in Vemurafenib sensitive human A375 cells
A-375 [20] = test: Induction of p53 protein expression in Vemurafenib resistant human A375 cells; format: functional, cell-based
[21] = biological target: Ubiquitin carboxyl-terminal hydrolase 9X (Homo sapiens) (UniProt Q93008); test: Inhibition of USP9x in Vemurafenib resistant human A375 cells assessed as STAT3 phosphorylation
[22] = biological target: T1, Ubiquitin carboxyl-terminal hydrolase 5 (Homo sapiens); test: Inhibition of USP5 in Vemurafenib […] human A375R cells assessed as increase in NOXA protein level
A375/R [23] = test: Induction of apoptosis in human A375R cells assessed as induction of PARP cleavage; format: functional, cell-based
A375/R [24] = test: Induction of apoptosis in human A375R cells assessed as induction of Bid cleavage; format: functional, cell-based
A375/R [25] = test: Induction of apoptosis in human A375R cells assessed as induction of caspase-8 activation; format: functional, cell-based
A375/R [26] = test: Induction of apoptosis in human A375R cells assessed as induction of caspase-3 activation; format: functional, cell-based
A-375 [27] = test: Antitumor activity against human A375 cells xenografted in NOD/SCID/gamma-2 knockout mouse assessed as inhibition of tumor growth at 7.5 to 15 mg/kg, ip once per day for 8 days followed by drug cessation and measured 10 days after drug cessation; format: functional, organism-based
Mus musculus [28] = test: Toxicity in human A375 cells xenografted NOD/SCID/gamma-2 knockout mouse assessed as effect on behaviour at 7.5 to 15 mg/kg, ip once per day for 8 days; format: functional, organism-based
Mus musculus [29] = test: Toxicity in human A375 cells xenografted NOD/SCID/gamma-2 knockout mouse assessed as effect on mobility at 7.5 to 15 mg/kg, ip once per day for 8 days; format: functional, organism-based
Mus musculus [30] = test: Toxicity in human A375 cells xenografted NOD/SCID/gamma-2 knockout mouse assessed as induction of body weight loss at 7.5 to 15 mg/kg, ip once per day for 8 days; format: functional, organism-based
A-375 [31] = test: Antitumor activity against human A375 cells xenografted in NOD/SCID/gamma-2 knockout mouse assessed as inhibition of tumor growth at 7.5 to 15 mg/kg, ip once per day for 8 days; format: functional, organism-based

Ubiquitin carboxyl-terminal hydrolase 9X (Homo sapiens), sequence (Q93008 whole entry): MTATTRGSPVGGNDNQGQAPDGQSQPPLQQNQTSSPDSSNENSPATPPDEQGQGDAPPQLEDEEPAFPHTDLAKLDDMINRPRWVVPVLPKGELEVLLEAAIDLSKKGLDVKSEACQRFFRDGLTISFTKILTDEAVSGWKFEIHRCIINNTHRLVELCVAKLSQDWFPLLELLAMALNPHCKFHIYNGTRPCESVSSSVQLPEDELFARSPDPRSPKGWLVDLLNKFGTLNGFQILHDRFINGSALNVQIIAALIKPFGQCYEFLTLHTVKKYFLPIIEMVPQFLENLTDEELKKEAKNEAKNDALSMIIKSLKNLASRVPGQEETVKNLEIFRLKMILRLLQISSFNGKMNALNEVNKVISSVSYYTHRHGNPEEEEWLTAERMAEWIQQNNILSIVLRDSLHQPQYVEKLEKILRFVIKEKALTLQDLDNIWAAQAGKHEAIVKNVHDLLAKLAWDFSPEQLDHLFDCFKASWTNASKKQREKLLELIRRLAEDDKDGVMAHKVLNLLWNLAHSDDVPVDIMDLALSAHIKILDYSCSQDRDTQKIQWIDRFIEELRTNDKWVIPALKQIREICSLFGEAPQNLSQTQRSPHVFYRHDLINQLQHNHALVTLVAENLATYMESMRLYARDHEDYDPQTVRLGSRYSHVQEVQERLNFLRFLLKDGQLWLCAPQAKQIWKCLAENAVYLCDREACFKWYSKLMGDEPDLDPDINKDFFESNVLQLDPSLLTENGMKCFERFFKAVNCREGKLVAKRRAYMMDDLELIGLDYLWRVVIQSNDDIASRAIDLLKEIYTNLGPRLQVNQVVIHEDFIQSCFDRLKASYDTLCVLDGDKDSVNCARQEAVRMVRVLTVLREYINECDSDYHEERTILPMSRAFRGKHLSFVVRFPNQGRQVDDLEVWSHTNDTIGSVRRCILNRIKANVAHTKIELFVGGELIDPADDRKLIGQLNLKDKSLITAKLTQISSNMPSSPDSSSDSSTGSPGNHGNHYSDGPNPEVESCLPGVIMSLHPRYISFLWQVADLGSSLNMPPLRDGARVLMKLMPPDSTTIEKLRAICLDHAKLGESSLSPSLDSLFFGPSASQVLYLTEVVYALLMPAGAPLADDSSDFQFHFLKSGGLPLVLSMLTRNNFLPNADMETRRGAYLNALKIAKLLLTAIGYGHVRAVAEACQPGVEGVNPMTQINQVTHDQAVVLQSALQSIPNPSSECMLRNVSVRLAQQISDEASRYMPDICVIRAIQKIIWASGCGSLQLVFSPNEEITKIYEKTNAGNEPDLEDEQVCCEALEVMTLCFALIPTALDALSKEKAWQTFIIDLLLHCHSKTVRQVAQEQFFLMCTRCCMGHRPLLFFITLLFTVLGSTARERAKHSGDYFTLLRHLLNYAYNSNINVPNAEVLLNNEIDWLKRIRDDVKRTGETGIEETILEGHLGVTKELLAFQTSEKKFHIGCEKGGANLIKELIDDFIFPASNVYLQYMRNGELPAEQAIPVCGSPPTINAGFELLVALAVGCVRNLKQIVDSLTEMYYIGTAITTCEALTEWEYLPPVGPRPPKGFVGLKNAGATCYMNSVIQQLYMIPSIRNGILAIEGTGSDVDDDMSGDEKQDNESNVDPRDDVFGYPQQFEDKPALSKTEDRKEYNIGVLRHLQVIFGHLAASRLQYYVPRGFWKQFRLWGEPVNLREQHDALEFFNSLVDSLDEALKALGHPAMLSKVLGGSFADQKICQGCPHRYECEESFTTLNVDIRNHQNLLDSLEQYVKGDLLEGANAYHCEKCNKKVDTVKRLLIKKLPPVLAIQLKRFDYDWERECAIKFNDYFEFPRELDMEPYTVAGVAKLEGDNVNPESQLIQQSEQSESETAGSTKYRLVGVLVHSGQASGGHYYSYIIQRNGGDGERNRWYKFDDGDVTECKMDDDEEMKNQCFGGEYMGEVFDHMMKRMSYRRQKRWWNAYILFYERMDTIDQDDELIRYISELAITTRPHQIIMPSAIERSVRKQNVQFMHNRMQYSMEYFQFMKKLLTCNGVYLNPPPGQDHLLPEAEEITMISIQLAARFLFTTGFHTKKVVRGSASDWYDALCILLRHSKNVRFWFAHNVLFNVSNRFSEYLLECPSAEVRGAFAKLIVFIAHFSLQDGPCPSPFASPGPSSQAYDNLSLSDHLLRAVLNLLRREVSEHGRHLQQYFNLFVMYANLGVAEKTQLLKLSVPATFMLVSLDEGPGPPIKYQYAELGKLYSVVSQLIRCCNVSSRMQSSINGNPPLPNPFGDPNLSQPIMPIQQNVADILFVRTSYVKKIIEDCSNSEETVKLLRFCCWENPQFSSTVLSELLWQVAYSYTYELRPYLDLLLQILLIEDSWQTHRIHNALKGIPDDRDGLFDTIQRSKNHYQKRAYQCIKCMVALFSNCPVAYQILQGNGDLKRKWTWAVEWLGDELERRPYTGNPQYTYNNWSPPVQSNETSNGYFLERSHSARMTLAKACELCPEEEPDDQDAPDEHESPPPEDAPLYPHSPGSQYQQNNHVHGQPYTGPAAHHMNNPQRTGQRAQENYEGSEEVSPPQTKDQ

CCCC(NC(=O)/C(C#N)=C/c1nc(Cl)ccc1Cl)c1ccc(OCCN2CCOCC2)cc1 (centres undefined)
16.1 to 37.6 ng/mL: concentration at 7 h [4]
44.5 to 57.1 ng/mL: concentration at 4 h [3]
60.8 to 78.7 ng/mL: concentration at 0.5 h [2]
291 to 349 ng·h/mL: AUC(0-t) [5]
Active: inhibition (INH) (Mus musculus [8])
active: inhibition [1] | inhibition [7] | inhibition (Mus musculus [9]) | TGI (A-375 [10]) | Activity (Murine norovirus [12]) | Activity (Murine norovirus [13]) | Activity (Murine norovirus [14]) | Activity (Sindbis virus) | Activity (Tulane virus) | Activity (La Crosse virus) | inhibition [15] | inhibition [16] | inhibition [17] | inhibition [18] | inhibition [19] | inhibition [21] | inhibition [22] | Activity (A375/R [23]) | Activity (A375/R [24]) | Activity (A375/R [25]) | Activity (A375/R [26]) | TGI (A-375 [31])
inactive: Activity (Mus musculus [6]) Not toxic | Activity (Mus musculus [11]) Not toxic | Activity (A-375 [20]) | TGI (A-375 [27]) | Activity (Mus musculus [28]) Not toxic | Activity (Mus musculus [29]) Not toxic | Activity (Mus musculus [30]) Not toxic

— ChEMBL document CHEMBL4257227, “Deubiquitinase inhibitors and methods for use of the same” (2016)
